Measurements: paper PMC9369069, “Development of Sesamol Carbamate-L-Phenylalanine Prodrug Targeting L-Type Amino Acid Transporter1 (LAT1) as a Potential Antiproliferative Agent against Melanoma” (International Journal of Molecular Sciences, 2022)
Like-named read-outs stand apart in the source and are kept apart here.

Molecular target: T1, L-type amino acid transporter 1 (LAT1) (Homo sapiens, UniProt Q01650)
T1 construct: gene SLC7A5
Experiment: cell-based

T1 sequence (Q01650 whole entry): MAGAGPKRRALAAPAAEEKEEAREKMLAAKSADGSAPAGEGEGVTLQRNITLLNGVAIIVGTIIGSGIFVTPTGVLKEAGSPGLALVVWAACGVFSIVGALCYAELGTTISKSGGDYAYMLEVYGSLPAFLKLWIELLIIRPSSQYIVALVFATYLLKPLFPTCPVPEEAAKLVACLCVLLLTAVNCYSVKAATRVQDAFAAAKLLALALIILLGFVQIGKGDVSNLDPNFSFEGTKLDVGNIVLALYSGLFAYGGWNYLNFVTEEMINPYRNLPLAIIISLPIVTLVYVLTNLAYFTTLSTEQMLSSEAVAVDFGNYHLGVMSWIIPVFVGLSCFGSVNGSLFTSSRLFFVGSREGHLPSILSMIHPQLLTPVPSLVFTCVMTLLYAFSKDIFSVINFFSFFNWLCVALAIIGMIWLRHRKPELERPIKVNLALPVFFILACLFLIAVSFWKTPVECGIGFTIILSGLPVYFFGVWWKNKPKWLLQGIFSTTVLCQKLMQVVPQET
T1 sequence (P08195 103-630 partner): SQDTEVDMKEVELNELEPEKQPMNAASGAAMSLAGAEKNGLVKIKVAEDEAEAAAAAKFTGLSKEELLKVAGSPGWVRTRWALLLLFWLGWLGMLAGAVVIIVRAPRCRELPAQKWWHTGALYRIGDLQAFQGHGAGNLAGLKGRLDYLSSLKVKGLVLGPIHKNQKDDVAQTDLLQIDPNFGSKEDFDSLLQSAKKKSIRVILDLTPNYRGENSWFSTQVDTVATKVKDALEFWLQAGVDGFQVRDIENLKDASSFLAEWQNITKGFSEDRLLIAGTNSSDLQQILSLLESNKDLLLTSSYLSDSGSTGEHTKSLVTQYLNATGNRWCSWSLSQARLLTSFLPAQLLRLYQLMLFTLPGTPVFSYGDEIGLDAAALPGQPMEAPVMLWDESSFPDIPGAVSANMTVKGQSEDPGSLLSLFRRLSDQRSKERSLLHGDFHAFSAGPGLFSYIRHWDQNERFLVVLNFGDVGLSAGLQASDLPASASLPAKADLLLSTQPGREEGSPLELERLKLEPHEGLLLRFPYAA

N[C@@H](Cc1ccc(NC(=O)Oc2ccc3c(c2)OCO3)cc1)C(=O)O [4-sesamol carbamate-L-phenylalanine prodrug]
IC50: 631 ± 38 µM

N[C@@H](Cc1ccccc1)C(=O)O [L-Phenylalanine]
IC50 (read-out: IC50): 96.8 ± 11.5 µM

Oc1ccc2c(c1)OCO2 [Sesamol]
IC50: 4760 ± 219 µM
